Results on one compound are retold here after patent publication US4661491A, “Alfuzosine compositions and use” (Synthelabo, priority 1985, dated 1987).

A short description of experiment [1]: Clinical study, sphincterometric measurements in patients with dysuria of neurological origin with urethral hypertonia. The format is in vivo, human. The note with it: 5 mg i.v. over 20 min; p<0.001. On the procedure:
By means of clinical studies, it has also been possible to show the efficacy of alfuzosine in patients suffering from dysuria of neurological origin with urethral hypertonia.
5 mg of alfuzosine are injected intravenously continuously for a period of 20 min. Sphincterometric measurements were made using an electronic micro-sensor, before and after the injection of the drug, at the bladder neck and at the striated sphincter of the posterior urethra.

Experiment [2] has as its target T1, α-adrenergic receptors (Oryctolagus cuniculus, UniProt O02824).
T1 construct: The bladder and urethra are rapidly removed and placed in lukewarm Krebs solution; from tissue; host or cells: rabbit bladder trigone muscle and urethra ring, isolated organ
T1 sequence (O02824 1-466): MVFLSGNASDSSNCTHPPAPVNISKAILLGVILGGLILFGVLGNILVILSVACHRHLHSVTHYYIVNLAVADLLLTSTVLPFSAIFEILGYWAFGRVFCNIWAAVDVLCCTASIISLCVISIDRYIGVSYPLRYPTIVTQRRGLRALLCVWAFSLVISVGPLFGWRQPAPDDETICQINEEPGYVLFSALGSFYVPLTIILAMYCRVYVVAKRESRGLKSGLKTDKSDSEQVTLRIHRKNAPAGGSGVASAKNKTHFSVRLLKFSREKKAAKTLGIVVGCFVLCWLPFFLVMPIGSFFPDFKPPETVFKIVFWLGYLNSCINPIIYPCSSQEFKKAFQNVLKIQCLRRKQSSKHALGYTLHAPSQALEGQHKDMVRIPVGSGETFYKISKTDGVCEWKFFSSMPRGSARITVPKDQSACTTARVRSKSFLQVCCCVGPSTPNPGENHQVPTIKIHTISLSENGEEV
As to the kind of experiment: Phenylephrine-induced contraction of rabbit trigone muscle and urethra preparations. In kind it is biochemical. On the procedure:
Male rabbits (CEGAN) weighing 3 to 4 kg are sacrificed by exsanguination and cervical dislocation.
The bladder and urethra are rapidly removed and placed in lukewarm Krebs solution containing bicarbonate.
The composition of this Krebs medium is as follows, in mM: NaCl 114; KCl 4.7; CaCl2 2.5; KH2 PO4 1.2; MgSO4 1.2; NaHCO3 25.0; glucose 11.7; ascorbic acid 1.1. Propranolol (1.0 μM) is added into the Krebs medium to block the β-adrenergic receptors.
The bladder is opened transversely and the "trigone" region of the muscle, located on the dorsal surface of the bladder and between the two ureters, is dissected out.
A 5 mm ring of urethra, from the region situated between the base of the bladder and the prostate, is also prepared.
The portions of trigone muscle and urethra are washed under a tension of 1 g in Krebs medium.
The contraction-response curve to cumulated concentrations of phenylephrine is determined.
Additions of the agonist are performed every 5 min. The tissues are washed until the original tension is reestablished, and are then incubated for 30 min with alfuzosine. A second response curve to phenylephrine is determined in the presence of alfuzosine.
The response curves to concentrations of phenylephrine in the presence or absence of alfuzosine are expressed as a percentage of the maximum response obtained relative to the control curve.
The power of alfuzosine is calculated in the form of pA2 by Schild's method, where pA2 =negative logarithm of the molar concentration of alfuzosine which causes a rightward shift of the response curve to the agonist.

Experiment [3] can be described thus: Clinical study in paraplegics, micturition test. The format is in vivo, human. The procedure:
A clinical study was also performed in paraplegics.
The paraplegic, or spinal man, gives rise to an experimental model of the peripheral receptors, since he embodies a disconnection from the influence of the higher, diencephalic and cortical nerve centres.
Given the localization of the alpha-adrenergic receptors in the posterior urethra and the vesico-urethral segment or neck, alpha-adrenergic hypertonia is the source of dysuria and disturbances of micturition. The opening of the neck and the fall in the pressure gradient in the posterior urethra are the two conditions required for the production of effective micturition.
Alfuzosine was administered intravenously, and then orally if the first test is positive. 5 mg of alfuzosine are injected intravenously in the course of 20 min.
The test is considered to be positive if an initiation of micturition, that is to say, necessarily, opening of the neck, takes place.
For patients for whom the test is positive, the administration of alfuzosine was then performed orally at the rate of 9 mg/24 h/28 d.

With `COc1cc2nc(N(C)CCCNC(=O)C3CCCO3)nc(N)c2cc1OC` (stereo not shown) [Alfuzosine], in experiment [1], the “pressure decrease at the bladder neck” value is reported as 44% and the “pressure decrease at the striated sphincter” value worked out at 39%. In addition, in experiment [2] (alfuzosine 3.0 μM, 30 min incubation, trigone muscle and urethra), the “shift of the response curve to phenylephrine” value is on record as “significant rightward parallel shift”. Further, the Kb in experiment [2] (antagonism of phenylephrine contraction, read-out: pA2 (Schild analysis) (converted)) was 89.1 nM. The “reduction in the maximum contractile effects of phenylephrine” value in experiment [2] (trigone muscle and urethra, 30 min) lay in the range of 20 to 30%. In addition, in experiment [3] (paraplegics positive in i.v. test, per os 9 mg/24 h/28 d), the “initiation of micturition under oral treatment” value was “enabled micturition to be rendered easier to initiate”. Besides, the “intra-urethral pressures after injection” value in experiment [3] (paraplegics, 5 mg i.v. in 20 min) is listed as “decrease significantly”.
